Experimental data from patent US20260183274A1, “PDK1 REGULATORY COMPOUND AND COMPOSITION CONTAINING THE SAME” (PROVIBIO CO., LTD., priority 2024, published 2026).

Test system: T cells isolated from mouse spleens
Experiment: T cell proliferation inhibition (CFSE flow cytometry, anti-CD3/anti-CD28 stimulation)
Assay type: cell-based
Conditions: mouse spleen T cells, 3 days; for inhibition at 0.01 µM / inhibition at 0.1 µM / inhibition at 1 µM / inhibition at 10 µM / inhibition at 30 µM / inhibition at 50 µM: Mus musculus, T-cell, 72 h, read-out: Proliferation inhibition rate (%)
Description: To verify the T cell proliferation inhibitory effect of the compounds according to the present invention, the following experiment was performed based on flow cytometry analysis using carboxyfluorescein diacetate succinimidyl ester (CFSE), a fluorescent dye that binds to intracellular molecules via covalent bonds.
Spleens were extracted from 7-week-old C57BL/6 mice, ground, and then separated into single cells using a strainer (40 μm pore size, SPL). Red blood cells were removed using ACK (Ammonium-Chloride-Potassium) lysis buffer to isolate white blood cells.
Finally, using a MACS Magnetic Stand and LS column, T cells were isolated from the spleen.
The T cells isolated from the spleen were resuspended in 1 mL of free medium (RPMI-1640+200 U/mL penicillin+200 μg/mL streptomycin), and 0.3 μL of CFSE (10 mM) was added. The mixture was incubated at 37° C. for 5 minutes.
Free medium (10 mL) was added to stop the reaction, and the cells were centrifuged to obtain the cell pellet.
RPMI 1640 medium containing 10% FBS, 100 U/mL penicillin, 100 μg/mL streptomycin, and resuspended the cells. The cells were then seeded into a 96-well plate at a density of 2×10^5 cells per well and activated with CD3 and CD28 antibodies (0.5 μg/mL each) to activate T cells.
The compound diluted in DMSO was added at concentrations of 10 nM, 100 nM, 1 μM, 10 μM, 30 μM, and 50 μM, with three wells per concentration, and cultured at 37° C. and 5% CO2 for three days. The cells were then analyzed using a FACS Canto instrument.
The proliferation inhibition rate (%) was calculated using the following formula: […]

| SMILES | inhibition at 0.01 µM (compound 10 nM) | inhibition at 0.1 µM (compound 100 nM) | inhibition at 1 µM (compound 1 μM) | inhibition at 10 µM (compound 10 μM) | inhibition at 30 µM (compound 30 μM) | inhibition at 50 µM (compound 50 μM) | Proliferation inhibition rate (%) (compound 10 nM) | Proliferation inhibition rate (%) (compound 100 nM) | Proliferation inhibition rate (%) (compound 1 μM) | Proliferation inhibition rate (%) (compound 10 μM) | Proliferation inhibition rate (%) (compound 30 μM) | Proliferation inhibition rate (%) (compound 50 μM) |
| --- | --- | --- | --- | --- | --- | --- | --- | --- | --- | --- | --- | --- |
| CCNCCCCCCCCCCCCNC(=O)c1cccnc1N [Compound 98, 2-amino-N-(12-(ethylamino)dodecyl)nicotinamide] | -4.82% | -3.95% | 100% | 100% | 100% | 100% |  |  |  |  |  |  |
| Nc1ncccc1C(=O)NCCCCCCCCCCCCN1CCN(C(=O)C2CC2)CC1 [Compound 99, 2-amino-N-(12-(4-(cyclopropanecarbonyl)piperazin-1-yl)dodecyl)nicotinamide] | -12.1% | 100% | 100% | 100% | 100% | 100% |  |  |  |  |  |  |
| CC(C)(C)OC(=O)NC1CCN(CCCCCCCCCCCCNC(=O)c2cccnc2N)CC1 [Compound 101, tert-Butyl (1-(12-(2-aminonicotinamido)dodecyl)piperidin-4-yl) carbamate] |  |  |  |  |  |  | −0.15% | 100.00% | 100.00% | 100.00% | 100.00% | 100.00% |
| CC1(C)CCN(CCCCCCCCCCCCNC(=O)c2cccnc2N)CC1 [Compound 102, 2-Amino-N-(12-(4,4-dimethylpiperidin-1-yl)dodecyl)nicotinamide] | -4.53% | 100% | 100% | 100% | 100% | 100% |  |  |  |  |  |  |
| CCOC(=O)C1CCN(CCCCCCCCCCCCNC(=O)c2cccnc2N)CC1 [Compound 103, Ethyl 1-(12-(2-aminonicotinamido)dodecyl)piperidine-4-carboxylate] | -6.43% | 100% | 100% | 100% | 100% | 100% |  |  |  |  |  |  |
| CC(C)N1CCN(CCCCCCCCCCCCNC(=O)c2cccnc2N)CC1 [Compound 104, 2-Amino-N-(12-(4-isopropylpiperazin-1-yl)dodecyl) nicotinamide] |  |  |  |  |  |  | 100.00% | 100.00% | 100.00% | 100.00% | 100.00% | 100.00% |
| Cc1nn(CCCCCCCCCCCCNC(=O)c2cccnc2N)cc1Br [Compound 105, 2-Amino-N-(12-(4-bromo-3-methyl-1H-pyrazol-1-yl)dodecyl)nicotinamide] | 6.73% | 8.33% | 38.9% | 100% | 100% | 100% |  |  |  |  |  |  |
| Nc1ncccc1C(=O)NCCCCCCCCCCCCn1ccc2ccc(I)cc21 [Compound 106, 2-Amino-N-(12-(6-iodo-1H-indol-1-yl)dodecyl)nicotinamide] | 0.44% | -1.9% | 0.44% | 100% | 100% | 100% |  |  |  |  |  |  |
| Nc1ncccc1C(=O)NCCCCCCCCCCCCN1CCC(C(F)F)CC1 [Compound 107, 2-Amino-N-(12-(4-(difluoromethyl)piperidin-1-yl)dodecyl)nicotinamide] | -35.2% | 100% | 100% | 100% | 100% | 100% |  |  |  |  |  |  |
| Nc1ncccc1C(=O)NCCCCCCCCCCCCN1CCC2(CC1)CC2 [Compound 108, N-(12-(6-Azaspiro[2.5]octan-6-yl)dodecyl)-2-aminonicotinamide] | 0.88% | 28.5% | 100% | 100% | 100% | 100% |  |  |  |  |  |  |
